Results reported in article PMC6627609, “Targeting Quorum Sensing: High-Throughput Screening to Identify Novel LsrK Inhibitors” (International Journal of Molecular Sciences, 2019).
pIC50: −log10 of the molar value. Structures can show the parent of a compound that is named as a salt.

Molecular target: LsrK (Salmonella typhimurium, UniProt Q8ZKQ6)
Assay: biochemical
Assay type: biochemical, S. typhimurium
Conditions: not given

Sequence of LsrK (Q8ZKQ6 whole entry): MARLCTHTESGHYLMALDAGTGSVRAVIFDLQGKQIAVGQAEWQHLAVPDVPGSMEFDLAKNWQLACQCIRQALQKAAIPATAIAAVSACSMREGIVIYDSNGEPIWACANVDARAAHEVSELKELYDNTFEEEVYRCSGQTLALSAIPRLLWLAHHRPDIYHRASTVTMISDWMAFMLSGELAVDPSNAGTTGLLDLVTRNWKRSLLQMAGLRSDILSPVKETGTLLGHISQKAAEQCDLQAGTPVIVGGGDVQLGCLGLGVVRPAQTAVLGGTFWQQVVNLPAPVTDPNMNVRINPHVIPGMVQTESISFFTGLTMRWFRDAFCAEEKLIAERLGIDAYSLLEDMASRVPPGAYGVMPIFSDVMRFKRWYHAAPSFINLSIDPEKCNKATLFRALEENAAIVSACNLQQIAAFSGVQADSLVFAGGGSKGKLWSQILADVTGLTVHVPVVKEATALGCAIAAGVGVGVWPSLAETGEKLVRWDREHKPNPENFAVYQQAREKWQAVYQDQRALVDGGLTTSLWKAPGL

SMILES | inhibition at 50 µM
CCc1ccc2c(O)c3c(cc2c1C(=O)OC)C(=O)c1c(O)ccc(O)c1C3=O [BISANHYDRORUTILANTINONE] | 2%
CC(C)NCC(O)COc1ccc(COCCOC(C)C)cc1 (stereo not drawn) [BISOPROLOL FUMARATE] | 0%
COC(=O)/C=C/C(C)=C\C=C\C(C)=C\C=C\C=C(C)\C=C\C=C(C)\C=C\C(=O)O [BIXIN] | 79%
O=C(O)CC[N+](=O)[O-] [BOVINOCIDIN (3-nitropropionic acid), 3-nitropropionic acid] | 5%
O=C1C=C2CC3(O)COc4cc(O)ccc4C3=C2C=C1O (stereo not drawn) [BRAZILEIN] | 66%
Oc1ccc2c(c1)OC[C@]1(O)Cc3cc(O)c(O)cc3[C@H]21 [BRAZILIN] | 133%
CC1(C)CC2C1CC[C@]1(CBr)CCC3C(CC(=O)O)C(=O)O[C@@]32C1 (stereo partly drawn) [BROMO-3-HYDROXY-4-(SUCCIN-2-YL)-CARYOLANE gamma-LACTONE] | 1%
O=C(CCCN1CCC(O)(c2ccc(Br)cc2)CC1)c1ccc(F)cc1 [BROMPERIDOL] | 1%
CN(C)CCC(c1ccc(Br)cc1)c1ccccn1 (stereo not drawn) [BROMPHENIRAMINE MALEATE] | 1%
COc1cc2c(cc1OC)[C@@]13CCN4CC5=CCO[C@H]6CC(=O)N2[C@H]1[C@H]6[C@H]5C[C@H]43 [BRUCINE] | 2%
CCOc1ccc(NC(=O)CC(C)O)cc1 (stereo not drawn) [BUCETIN] | 0%
CCCC1O[C@@H]2C[C@H]3[C@@H]4CCC5=CC(=O)C=C[C@]5(C)[C@H]4[C@@H](O)C[C@]3(C)[C@]2(C(=O)CO)O1 (stereo partly drawn) [BUDESONIDE] | 2%
CCCCNc1cc(C(=O)O)cc(S(N)(=O)=O)c1Oc1ccccc1 [BUMETANIDE] | 1%
CCCCN1CCCCC1C(=O)Nc1c(C)cccc1C (stereo not drawn) [BUPIVACAINE HYDROCHLORIDE] | 2%
CCCCN(CCCC)CCCOC(=O)c1ccc(N)cc1 [BUTACAINE] | 3%
CC(=O)OC[C@@]1(O)C[C@@]23CC[C@@H]4c5ccoc5CC[C@@]4(C)[C@@H]2CC[C@@H]1C3 [CAFESTOL ACETATE] | 1%
CC[C@@]1(O)C(=O)OCc2c1cc1n(c2=O)Cc2cc3ccccc3nc2-1 [CAMPTOTHECIN] | 1%
C[C@]12CCC(=O)C=C1C=C[C@@H]1[C@@H]2CC[C@@]2(C)[C@H]1CC[C@@]21CCC(=O)O1 [CANRENONE] | 1%
C[C@@]12C(=O)OC(=O)[C@]1(C)[C@H]1CC[C@@H]2O1 [CANTHARIDIN] | 4%
COc1cc(CNC(=O)CCCC/C=C/C(C)C)ccc1O [CAPSAICIN] | 2%
CC1=C(/C=C/C(C)=C/C=C/C(C)=C/C=C/C=C(C)/C=C/C=C(C)/C=C/C(=O)[C@]2(C)C[C@@H](O)CC2(C)C)C(C)(C)C[C@H](O)C1 [CAPSANTHIN] | 1%

SMILES | inhibition at 50 µM
COC(=O)C[C@H]1C(C)(C)C(=O)[C@@H]2CC3C4=CC(=O)O[C@@H](c5ccoc5)[C@]4(C)CC[C@@H]3[C@@]1(C)C2=O (stereo partly drawn) [CARAPIN] | 2%
C[N+](C)(C)CCOC(N)=O [CARBACHOL] | 1%
COC(=O)N/N=C/c1c[n+]([O-])c2ccccc2[n+]1[O-] [CARBADOX] | 3%
C[C@@](Cc1ccc(O)c(O)c1)(NN)C(=O)O [CARBIDOPA] | 0%
Cc1c(C(=O)O)c(O)cc2c1C(=O)c1c(O)c([C@@H]3O[C@H](CO)[C@@H](O)[C@H](O)[C@H]3O)c(O)c(O)c1C2=O [CARMINIC ACID] | 6%
O=NN(CCCl)C(=O)NCCCl [CARMUSTINE] | 10%
CC(C)c1cc2c(c(O)c1O)[C@@]1(C(=O)O)CCCC(C)(C)[C@@H]1CC2 [CARNOSIC ACID] | 2%
NCCC(=O)N[C@@H](Cc1cnc[nH]1)C(=O)O [CARNOSINE] | 0%
CC(C(=O)O)c1ccc2c(c1)[nH]c1ccc(Cl)cc12 (stereo not drawn) [CARPROFEN] | 1%
C[C@@H]1CC[C@H]2C(C)(C)[C@H]3C[C@@]12CC[C@@]3(C)O [CEDROL] | 13%
N[C@@H](C(=O)N[C@@H]1C(=O)N2C(C(=O)O)=C(Cl)CS[C@H]12)c1ccccc1 [CEFACLOR] | 24%
CC1=C(C(=O)O)N2C(=O)[C@@H](NC(=O)[C@H](N)c3ccc(O)cc3)[C@H]2SC1 [CEFADROXIL] | 1%
Cn1nnnc1SCC1=C(C(=O)O)N2C(=O)[C@@H](NC(=O)[C@H](OC=O)c3ccccc3)[C@H]2SC1 [CEFAMANDOLE NAFATE] | 1%
Cn1nnnc1SCC1=C(C(=O)O)N2C(=O)[C@@H](NC(=O)[C@H](O)c3ccccc3)[C@H]2SC1 [CEFAMANDOLE SODIUM] | 15%
Cc1nnc(SCC2=C(C(=O)O)N3C(=O)[C@@H](NC(=O)Cn4cnnn4)[C@H]3SC2)s1 [CEFAZOLIN SODIUM] | 1%
CCN1CCN(C(=O)N[C@@H](C(=O)N[C@@H]2C(=O)N3C(C(=O)O)=C(CSc4nnnn4C)CS[C@H]23)c2ccc(O)cc2)C(=O)C1=O [CEFOPERAZONE SODIUM] | 0%
CO/N=C(\C(=O)N[C@@H]1C(=O)N2C(C(=O)O)=C(COC(C)=O)CS[C@H]12)c1csc(N)n1 [CEFOTAXIME SODIUM] | 32%
CO[C@@]1(NC(=O)Cc2cccs2)C(=O)N2C(C(=O)O)=C(COC(N)=O)CS[C@@H]21 [CEFOXITIN SODIUM] | 3%
COCC1=C(C(=O)OC(C)OC(=O)OC(C)C)N2C(=O)[C@@H](NC(=O)/C(=N\OC)c3csc(N)n3)[C@H]2SC1 (stereo partly drawn) [CEFPODOXIME PROXETIL] | 24%
CC(C)(O/N=C(\C(=O)N[C@@H]1C(=O)N2C(C(=O)[O-])=C(C[n+]3ccccc3)CS[C@H]12)c1csc(N)n1)C(=O)O [CEFTAZIDIME] | 70%
Nc1nc(/C(=C/CC(=O)O)C(=O)N[C@@H]2C(=O)N3C(C(=O)O)=CCS[C@H]23)cs1 [CEFTIBUTEN] | 105%

Same assay, conditions: 50 µM

SMILES | Inhibition (%)
COc1cc(OC)c(C(=O)CCCN2CCCC2)c(OC)c1.Cl [BUFLOMEDIL HYDROCHLORIDE] | 1
CCOc1nc2cccc(C(=O)OC(C)OC(=O)OC3CCCCC3)c2n1Cc1ccc(-c2ccccc2-c2nn[nH]n2)cc1 (stereo not drawn) [CANDESARTAN CILEXTIL, reference compound] | 101
C[C@]12CCC(=O)C=C1C=C[C@@H]1[C@@H]2CC[C@@]2(C)[C@H]1CC[C@@]2(O)CCC(=O)[O-].[K+] [CANRENOIC ACID. POTASSIUM SALT] | 0
CC1=C(/C=C/C(C)=C/C=C/C(C)=C/C=C/C=C(C)/C=C/C=C(C)/C=C/C2=C(C)C(=O)CCC2(C)C)C(C)(C)CCC1=O [CANTHAXANTHIN (euglenanone), CANTHAXANTHIN] | 2
CCCCCCCCCCCCCCC(C(=O)O)C(O)(CC(=O)OC)C(=O)O (stereo not drawn) [CAPERATIC ACID] | 8
C[N+](C)(C)CC(O)CC(=O)O.[Cl-] (stereo not drawn) [CARNITINE (dl) HYDROCHLORIDE] | 3
CO/N=C(\C(=O)N[C@@H]1C(=O)N2C(C(=O)OCOC(=O)C(C)(C)C)=C(/C=C\c3scnc3C)CS[C@H]12)c1csc(N)n1 [CEFDITORIN PIVOXIL] | 2
O=C([O-])C1=C(CSc2nnnn2CS(=O)(=O)[O-])CS[C@@H]2[C@H](NC(=O)[C@H](O)c3ccccc3)C(=O)N12.[Na+].[Na+] [CEFONICID SODIUM] | 0

Same assay, conditions: read-out: IC50 against LsrK

SMILES | pIC50
CCOc1nc2cccc(C(=O)OC(C)OC(=O)OC3CCCCC3)c2n1Cc1ccc(-c2ccccc2-c2nn[nH]n2)cc1 (stereo not drawn) [CANDESARTAN CILEXTIL, reference compound] | 4.85
